# Reference: publication doi:[…]/2023.10.03.560722, “Drug Discovery in Low Data Regimes: Leveraging a Computational Pipeline for the Discovery of Novel SARS-CoV-2 Nsp14-MTase Inhibitors” (bioRxiv, 2024)
# Like-named read-outs stand apart in the source and are kept apart here.
# Assays:
# Format in all cases: biochemical
# SARS-CoV-2 nsp14 MTase = SARS-CoV-2 nsp14 MTase (Severe acute respiratory syndrome coronavirus 2, UniProt P0DTD1); assay: biochemical
# [1] = molecular target: T1, PRMT7 (protein arginine methyltransferase 7) (Homo sapiens, UniProt Q9NVM4); assay: human MTase selectivity panel and IC50
# T1 sequence (Q9NVM4 1-692): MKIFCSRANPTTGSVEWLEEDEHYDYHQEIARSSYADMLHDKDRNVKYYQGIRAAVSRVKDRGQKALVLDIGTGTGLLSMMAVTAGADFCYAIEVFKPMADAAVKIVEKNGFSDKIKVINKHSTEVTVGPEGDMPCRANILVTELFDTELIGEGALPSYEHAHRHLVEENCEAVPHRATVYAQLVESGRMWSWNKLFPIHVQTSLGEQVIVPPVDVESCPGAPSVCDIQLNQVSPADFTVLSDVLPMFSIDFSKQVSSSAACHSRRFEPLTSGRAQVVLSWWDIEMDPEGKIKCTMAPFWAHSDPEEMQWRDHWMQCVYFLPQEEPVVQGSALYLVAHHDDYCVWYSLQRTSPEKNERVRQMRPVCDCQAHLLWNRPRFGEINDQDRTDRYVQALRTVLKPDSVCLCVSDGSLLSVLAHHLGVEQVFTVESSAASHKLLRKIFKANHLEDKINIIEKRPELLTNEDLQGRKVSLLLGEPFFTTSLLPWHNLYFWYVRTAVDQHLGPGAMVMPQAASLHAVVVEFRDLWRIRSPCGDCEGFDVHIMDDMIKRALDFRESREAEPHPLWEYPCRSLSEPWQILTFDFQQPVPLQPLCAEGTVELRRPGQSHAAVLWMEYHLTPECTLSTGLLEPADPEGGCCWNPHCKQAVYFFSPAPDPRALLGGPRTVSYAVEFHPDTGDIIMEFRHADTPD
# SETD7 = molecular target: T2, SETD7 (Homo sapiens, UniProt Q8WTS6); assay: human MTase selectivity panel
# T2 sequence (Q8WTS6 1-366): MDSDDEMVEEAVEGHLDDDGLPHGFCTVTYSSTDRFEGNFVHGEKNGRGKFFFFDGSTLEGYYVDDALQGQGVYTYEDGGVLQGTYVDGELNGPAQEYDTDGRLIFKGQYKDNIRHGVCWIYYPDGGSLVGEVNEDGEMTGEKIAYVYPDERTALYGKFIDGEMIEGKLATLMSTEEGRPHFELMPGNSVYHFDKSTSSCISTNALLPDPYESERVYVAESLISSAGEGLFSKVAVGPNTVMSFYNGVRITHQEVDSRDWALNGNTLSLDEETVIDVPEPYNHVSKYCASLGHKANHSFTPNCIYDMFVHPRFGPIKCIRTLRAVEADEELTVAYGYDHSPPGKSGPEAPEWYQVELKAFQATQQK
# MLL1 = MLL1 (Homo sapiens, UniProt Q03164); assay: human MTase selectivity panel
# EZH2 = EZH2 (Homo sapiens, UniProt Q15910); assay: human MTase selectivity panel
# BCDIN3D = molecular target: T3, BCDIN3D (Homo sapiens, UniProt Q7Z5W3); assay: human MTase selectivity panel
# T3 sequence (Q7Z5W3 1-292): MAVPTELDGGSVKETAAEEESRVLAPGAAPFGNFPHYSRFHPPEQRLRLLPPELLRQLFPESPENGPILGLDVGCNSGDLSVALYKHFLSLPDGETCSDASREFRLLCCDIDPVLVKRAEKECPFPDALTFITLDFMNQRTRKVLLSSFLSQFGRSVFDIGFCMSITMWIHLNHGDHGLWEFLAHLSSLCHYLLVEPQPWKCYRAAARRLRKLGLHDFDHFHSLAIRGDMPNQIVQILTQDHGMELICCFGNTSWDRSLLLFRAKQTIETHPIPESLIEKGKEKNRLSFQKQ
# NSD1 = NSD1 (Homo sapiens, UniProt Q96L73); assay: human MTase selectivity panel
# [2] = average ± SD, read-out: Activity (%) at 10 µM Average
# [3] = read-out: Activity (%) at 10 µM Replicate 1
# [4] = read-out: Activity (%) at 10 µM Replicate 2
# [5] = read-out: Activity (%) at 10 µM Replicate 3
# Sequence of MLL1 (Q9UBL3 whole entry): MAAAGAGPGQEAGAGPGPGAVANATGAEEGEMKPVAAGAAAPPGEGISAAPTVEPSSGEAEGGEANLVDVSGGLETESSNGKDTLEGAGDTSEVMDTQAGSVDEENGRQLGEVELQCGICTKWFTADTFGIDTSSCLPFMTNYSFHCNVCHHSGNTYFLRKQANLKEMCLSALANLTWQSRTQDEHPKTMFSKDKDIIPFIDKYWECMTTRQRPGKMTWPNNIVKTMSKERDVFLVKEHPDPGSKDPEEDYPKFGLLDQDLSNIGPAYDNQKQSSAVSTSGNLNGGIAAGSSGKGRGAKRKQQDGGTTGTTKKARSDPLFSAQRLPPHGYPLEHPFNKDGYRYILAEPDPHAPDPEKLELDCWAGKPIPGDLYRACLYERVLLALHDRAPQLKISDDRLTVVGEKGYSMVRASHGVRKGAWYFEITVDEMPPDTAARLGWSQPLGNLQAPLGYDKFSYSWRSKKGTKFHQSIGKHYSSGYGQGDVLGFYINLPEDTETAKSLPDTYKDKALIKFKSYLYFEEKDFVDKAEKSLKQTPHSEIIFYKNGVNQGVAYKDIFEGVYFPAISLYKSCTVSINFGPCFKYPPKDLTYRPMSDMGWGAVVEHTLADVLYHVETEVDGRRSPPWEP
# Sequence of MLL1 (Q15291 whole entry, further chain): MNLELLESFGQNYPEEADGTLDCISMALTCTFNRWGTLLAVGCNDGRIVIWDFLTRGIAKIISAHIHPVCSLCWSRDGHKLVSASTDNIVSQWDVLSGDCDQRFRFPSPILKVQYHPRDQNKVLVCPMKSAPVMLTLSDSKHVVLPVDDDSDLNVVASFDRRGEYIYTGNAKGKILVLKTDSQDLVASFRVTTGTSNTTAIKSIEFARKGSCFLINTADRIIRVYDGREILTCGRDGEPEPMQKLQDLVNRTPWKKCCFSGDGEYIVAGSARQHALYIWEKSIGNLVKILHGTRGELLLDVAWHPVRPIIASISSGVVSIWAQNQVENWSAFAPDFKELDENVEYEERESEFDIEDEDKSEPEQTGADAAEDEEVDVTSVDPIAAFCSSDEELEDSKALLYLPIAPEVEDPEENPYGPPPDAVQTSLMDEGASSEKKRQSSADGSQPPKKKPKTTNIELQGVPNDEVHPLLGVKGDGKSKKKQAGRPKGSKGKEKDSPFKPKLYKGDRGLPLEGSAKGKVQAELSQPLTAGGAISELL
# Sequence of MLL1 (Q03164 3745-3969): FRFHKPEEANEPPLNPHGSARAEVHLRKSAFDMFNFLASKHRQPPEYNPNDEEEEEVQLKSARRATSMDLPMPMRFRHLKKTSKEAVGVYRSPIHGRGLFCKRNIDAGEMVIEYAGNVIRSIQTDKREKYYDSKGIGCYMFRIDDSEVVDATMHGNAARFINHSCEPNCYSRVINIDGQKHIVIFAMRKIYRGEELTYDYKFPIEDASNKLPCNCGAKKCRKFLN
# Sequence of NSD1 (Q96L73 whole entry): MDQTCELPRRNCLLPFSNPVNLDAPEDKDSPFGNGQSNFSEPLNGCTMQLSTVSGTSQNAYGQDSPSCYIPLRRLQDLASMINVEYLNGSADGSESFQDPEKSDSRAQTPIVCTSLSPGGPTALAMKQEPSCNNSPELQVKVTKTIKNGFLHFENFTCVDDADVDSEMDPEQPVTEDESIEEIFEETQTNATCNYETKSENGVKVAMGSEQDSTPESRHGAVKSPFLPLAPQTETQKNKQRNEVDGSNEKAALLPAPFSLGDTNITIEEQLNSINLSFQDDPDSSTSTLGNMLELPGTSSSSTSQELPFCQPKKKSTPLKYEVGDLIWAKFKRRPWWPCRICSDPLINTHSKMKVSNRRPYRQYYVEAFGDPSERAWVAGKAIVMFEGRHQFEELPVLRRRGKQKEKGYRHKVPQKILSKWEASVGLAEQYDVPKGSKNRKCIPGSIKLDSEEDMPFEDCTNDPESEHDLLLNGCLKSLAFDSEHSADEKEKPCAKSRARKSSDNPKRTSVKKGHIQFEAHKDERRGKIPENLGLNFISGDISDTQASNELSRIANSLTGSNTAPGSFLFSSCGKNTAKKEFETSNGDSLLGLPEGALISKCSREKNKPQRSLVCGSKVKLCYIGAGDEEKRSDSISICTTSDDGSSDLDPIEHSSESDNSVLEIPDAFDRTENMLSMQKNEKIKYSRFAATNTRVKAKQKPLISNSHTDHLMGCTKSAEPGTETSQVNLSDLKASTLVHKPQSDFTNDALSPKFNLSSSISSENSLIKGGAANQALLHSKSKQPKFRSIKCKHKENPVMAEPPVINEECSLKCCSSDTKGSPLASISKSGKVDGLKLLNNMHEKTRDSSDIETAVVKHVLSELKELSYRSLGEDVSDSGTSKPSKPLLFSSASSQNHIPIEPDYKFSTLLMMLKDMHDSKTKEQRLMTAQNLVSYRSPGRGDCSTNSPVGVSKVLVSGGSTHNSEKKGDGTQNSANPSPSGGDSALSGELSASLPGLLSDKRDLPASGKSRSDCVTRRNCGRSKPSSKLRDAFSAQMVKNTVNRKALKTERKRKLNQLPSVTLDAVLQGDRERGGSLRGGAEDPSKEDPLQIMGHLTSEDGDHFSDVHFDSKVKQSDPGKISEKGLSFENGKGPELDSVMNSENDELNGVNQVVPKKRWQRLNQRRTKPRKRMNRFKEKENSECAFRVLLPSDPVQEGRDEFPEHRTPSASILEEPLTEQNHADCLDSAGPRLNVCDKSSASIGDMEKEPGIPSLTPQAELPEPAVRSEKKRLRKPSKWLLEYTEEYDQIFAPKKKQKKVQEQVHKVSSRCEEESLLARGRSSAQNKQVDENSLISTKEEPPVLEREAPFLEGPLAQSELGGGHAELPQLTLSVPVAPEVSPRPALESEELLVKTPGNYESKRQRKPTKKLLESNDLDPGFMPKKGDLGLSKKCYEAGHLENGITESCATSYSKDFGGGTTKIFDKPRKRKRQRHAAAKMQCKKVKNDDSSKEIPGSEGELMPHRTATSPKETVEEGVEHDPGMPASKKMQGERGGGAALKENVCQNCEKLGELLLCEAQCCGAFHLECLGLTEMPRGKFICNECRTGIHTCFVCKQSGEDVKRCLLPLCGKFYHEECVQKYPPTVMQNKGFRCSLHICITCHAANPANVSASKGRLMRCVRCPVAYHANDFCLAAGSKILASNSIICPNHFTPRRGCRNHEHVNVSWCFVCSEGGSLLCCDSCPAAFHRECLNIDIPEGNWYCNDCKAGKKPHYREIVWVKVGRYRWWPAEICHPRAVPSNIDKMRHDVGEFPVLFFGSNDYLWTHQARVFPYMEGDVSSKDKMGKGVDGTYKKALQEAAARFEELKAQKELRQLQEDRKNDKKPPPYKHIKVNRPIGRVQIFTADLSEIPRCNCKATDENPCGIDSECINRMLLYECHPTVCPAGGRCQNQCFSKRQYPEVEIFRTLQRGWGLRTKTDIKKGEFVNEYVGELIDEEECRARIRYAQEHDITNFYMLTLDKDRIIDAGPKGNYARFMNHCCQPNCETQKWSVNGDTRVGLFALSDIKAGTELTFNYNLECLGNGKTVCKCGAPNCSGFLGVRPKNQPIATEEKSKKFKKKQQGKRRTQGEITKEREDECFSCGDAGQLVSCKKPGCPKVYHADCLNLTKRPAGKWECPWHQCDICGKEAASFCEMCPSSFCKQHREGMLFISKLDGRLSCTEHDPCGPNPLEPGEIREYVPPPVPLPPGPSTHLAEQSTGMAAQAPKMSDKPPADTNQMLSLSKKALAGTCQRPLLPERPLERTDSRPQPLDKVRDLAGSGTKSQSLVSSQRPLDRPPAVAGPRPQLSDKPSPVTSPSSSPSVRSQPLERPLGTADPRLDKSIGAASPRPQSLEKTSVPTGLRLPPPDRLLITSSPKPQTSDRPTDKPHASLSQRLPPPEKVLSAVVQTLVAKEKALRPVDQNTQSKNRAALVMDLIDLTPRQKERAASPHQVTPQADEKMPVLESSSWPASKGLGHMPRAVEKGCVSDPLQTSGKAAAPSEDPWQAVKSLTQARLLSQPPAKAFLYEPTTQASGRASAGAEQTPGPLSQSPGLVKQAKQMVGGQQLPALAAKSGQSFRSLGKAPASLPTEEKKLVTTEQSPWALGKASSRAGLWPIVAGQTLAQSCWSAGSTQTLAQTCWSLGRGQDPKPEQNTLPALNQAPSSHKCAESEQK
compound,measurement,setting,value
Nc1ncnc2c1ncn2[C@@H]1O[C@H](CSCc2ccc(Cl)cc2)[C@@H](O)[C@H]1O [NSC620333],IC50,"SARS-CoV-2 nsp14 MTase; IC50 (µM), nsp14 MTase activity, high-throughput screening follow-up",5 µM
same,IC50,"SARS-CoV-2 nsp14 MTase; IC50, at Km of both SAM and RNA substrates, mean ± SD, n = 3",5.3 ± 1 µM
same,mechanism of action with respect to RNA substrate,"SARS-CoV-2 nsp14 MTase; IC50 at varying RNA (31 to 500 nM), fixed SAM 1.25 µM",noncompetitive
same,mechanism of action with respect to SAM,"SARS-CoV-2 nsp14 MTase; IC50 at varying SAM (0.15 to 2.5 µM), fixed RNA 0.25 µM",SAM competitive
same,"inhibition of nsp14, batch retesting","SARS-CoV-2 nsp14 MTase; custom-ordered, highly purified (>99%) sample",more pronounced inhibition
same,inhibition at 100 µM,SARS-CoV-2 nsp14 MTase; read-out: nsp14 Inhibition % (100µM) Exp 1,100%
same,inhibition at 100 µM,SARS-CoV-2 nsp14 MTase; read-out: nsp14 Inhibition % (100µM) Exp 2,99%
same,IC50,[1]; PRMT7,7 ± 1.5 µM
same,activity at 10 µM,"[1]; PRMT7, average ± SD, read-out: Activity (%) at 10 µM Average",32 ± 3%
same,activity at 10 µM,"[1]; PRMT7, read-out: Activity (%) at 10 µM Replicate 1",35%
same,activity at 10 µM,"[1]; PRMT7, read-out: Activity (%) at 10 µM Replicate 2",29%
same,activity at 10 µM,"[1]; PRMT7, read-out: Activity (%) at 10 µM Replicate 3",32%
same,Hill Slope,[1]; PRMT7 IC50 curve,-1.9
same,activity at 10 µM,SETD7; [2],87 ± 1%
same,activity at 10 µM,SETD7; [3],85%
same,activity at 10 µM,SETD7; [4],88%
same,activity at 10 µM,SETD7; [5],87%
same,activity at 10 µM,MLL1; [2],85 ± 2%
same,activity at 10 µM,MLL1; [3],84%
same,activity at 10 µM,MLL1; [4],87%
same,activity at 10 µM,MLL1; [5],84%
same,activity at 10 µM,EZH2; [2],96 ± 5%
same,activity at 10 µM,EZH2; [3],101%
same,activity at 10 µM,EZH2; [4],90%
same,activity at 10 µM,EZH2; [5],98%
same,activity at 10 µM,BCDIN3D; [2],62 ± 5%
same,activity at 10 µM,BCDIN3D; [3],57%
same,activity at 10 µM,BCDIN3D; [4],66%
same,activity at 10 µM,BCDIN3D; [5],64%
same,activity at 10 µM,NSD1; [2],104 ± 2%
same,activity at 10 µM,NSD1; [3],103%
same,activity at 10 µM,NSD1; [4],102%
same,activity at 10 µM,NSD1; [5],107%
